Measurements reported in patent US6228363A, “Peptides for the treatment of systemic lupus erythematosus” (Hadasit Medical Research Services & Development Company Ltd., priority 1997, dated 2001).

Experiments:
[1] = system: C72 murine anti-DNA antibody; test: Competitive inhibition of C72 binding to 5200, ELISA; conditions: antibody incubated with inhibitor before ELISA
Protocol: Competitive Inhibition Assays:
In competitive inhibition assays, the antibodies were incubated with various concentrations of the inhibitor (for example: peptide, DNA, heparin) or with DNase for 45 minutes at room temperature and the remaining binding was then evaluated by ELISA as described heretofore.
% inhibition was computed as
O.D. binding without inhibitor-O.D. binding with inhibitor×100=%
inhibition O.D. binding without inhibitor
The binding of C72 to 5200 was tested before and after incubation with 5200, R38, R18, Heparin, DNA and DNase. […] The percent inhibition is the percent reduction of the O.D. after incubation with the inhibiting agent.

[2] = system: murine urinary immunoglobulins; test: Binding of murine urinary immunoglobulins, direct binding ELISA; parameters: species or system mice; conditions: pooled urine
Protocol: (§1) Wells were coated with 10 μg/ml of the peptides, blocked with 1% BSA (bovine serum albumin) in PBS (pH 7,4), reacted with appropriately diluted serum or urine samples or monoclonal antibodies, incubated with anti-human or anti-mouse immunoglobulin enzyme conjugated to alkaline phosphatase and detected by addition of substrate (Sigma 100 Phosphatase Substrate Tablets) and color development using an Organon Teknika Microwell System spectrometer at wavelength of 405 nm.
Thus, pooled urine from at least 5 mice (either MRL/1pr/1pr or control mice, e.g. BALB/c) was added to wells coated with R38' (5200), R18 or DNA as described above and bound 5200 assayed by ELISA.
Binding of Murine Urinary Immunoglobulins To 5200
Each group is comprised of pooled urine.

[3] = system: C72 murine anti-DNA antibody; test: Direct binding ELISA of C72 to laminin peptides; conditions: for binding of C72 murine anti-DNA antibody to peptide (FIG. 1): C72 conditioned medium in various dilutions in PBS; for C72 Binding: O.D. in a direct binding ELISA test after one (1) hour
Protocol: The C72 murine anti-DNA antibody has been derived from (NZBxNZW)F1 lupus mice by the hybridoma technique as described in Eilat D. et al J. Immunol. (1991) 147 361-368. The monoclonal anti-DNA antibodies DIL6 and B3 were derived from lupus patients by hybridoma technique as described in Ehrenstein M. R. et al J. Clin. Invest. (1994) 93 1787-1799 and Ehrenstein M. R. et al Kidney Inter. (1995) 48 705-711.
Anti-Peptide (Direct Binding) ELISA:
as §1
The interaction of the C72 murine anti-DNA antibody with laminin peptides was analyzed by ELISA as described above. The C72 conditioned medium was diluted in PBS in various dilutions.
The peptides of the present invention were tested for their ability to bind directly with C72 murine anti-DNA antibodies and B3 human anti-DNA antibodies according to the methods described hereinabove.

Question: For heparin, which “inhibition of the binding of C72 to 5200 (FIG. 2)” value [1] is on record?
Answer: The value was “inhibition”.

Question: DNase was tested. Which “inhibition of the binding of C72 to 5200 (FIG. 2)” value [1] did it give?
Answer: Its value is “not”.

Question: Which results are given for DNA [reference compound]?
Answer: inhibition of the binding of C72 to 5200 (FIG. 2) [1]: inhibition; Binding of murine urinary immunoglobulins to antigen ([2]; BALB/c mice): U.D.; Binding of murine urinary immunoglobulins to antigen ([2]; MRL/lpr/lpr mice): U.D.

Question: Which results are given for “RPVRHAQCRVCDGNSTNPRERH [Peptide R18, peptide from the N-terminal of mouse laminin α chain, residues 42-63]”?
Answer: binding of C72 murine anti-DNA antibody to peptide (FIG. 1) [3]: not; C72 Binding [3]: 0.01 O.D.; Binding of murine urinary immunoglobulins to antigen ([2]; BALB/c mice): U.D.; Binding of murine urinary immunoglobulins to antigen ([2]; MRL/lpr/lpr mice): U.D.

Question: With “KONCLSSRASFRGCVRNLRLSR (PHTHSTSADTNDPIYVGGYPAH; UniProt P19137 3011-3032, looked up, fragment) [Peptide R30, mouse laminin α chain residues 3011-3032]” as the substance, how does the “binding of C72 murine anti-DNA antibody to peptide (FIG. 1)” value [3] read?
Answer: Its value is “binding”.

Question: And the “C72 Binding” value [3]?
Answer: The value was 0.75 O.D.
